This passage reports remaining activity results from PMC5564600 (Oncotarget, 2017).

Molecules are shown by their SMILES. Where two headings read alike, the source gives them in different places.

What all share (assay): biochemical
What all share (format): binding

Assay [1] addresses T1, panel of 442 kinases (Homo sapiens, UniProt Q00537).
T1 construct: purchased Ambit Biosciences (scanMAXX KINOMEscan)
The note with it: kinase PCTK2; for remaining activity at 1 µM: read-out: % of control at 1 µM.

The target in assay [2] is T2, panel of 442 kinases (Homo sapiens, UniProt Q9BZL6).
T2 construct: purchased Ambit Biosciences (scanMAXX KINOMEscan)
T2 sequence (Q9BZL6 1-878): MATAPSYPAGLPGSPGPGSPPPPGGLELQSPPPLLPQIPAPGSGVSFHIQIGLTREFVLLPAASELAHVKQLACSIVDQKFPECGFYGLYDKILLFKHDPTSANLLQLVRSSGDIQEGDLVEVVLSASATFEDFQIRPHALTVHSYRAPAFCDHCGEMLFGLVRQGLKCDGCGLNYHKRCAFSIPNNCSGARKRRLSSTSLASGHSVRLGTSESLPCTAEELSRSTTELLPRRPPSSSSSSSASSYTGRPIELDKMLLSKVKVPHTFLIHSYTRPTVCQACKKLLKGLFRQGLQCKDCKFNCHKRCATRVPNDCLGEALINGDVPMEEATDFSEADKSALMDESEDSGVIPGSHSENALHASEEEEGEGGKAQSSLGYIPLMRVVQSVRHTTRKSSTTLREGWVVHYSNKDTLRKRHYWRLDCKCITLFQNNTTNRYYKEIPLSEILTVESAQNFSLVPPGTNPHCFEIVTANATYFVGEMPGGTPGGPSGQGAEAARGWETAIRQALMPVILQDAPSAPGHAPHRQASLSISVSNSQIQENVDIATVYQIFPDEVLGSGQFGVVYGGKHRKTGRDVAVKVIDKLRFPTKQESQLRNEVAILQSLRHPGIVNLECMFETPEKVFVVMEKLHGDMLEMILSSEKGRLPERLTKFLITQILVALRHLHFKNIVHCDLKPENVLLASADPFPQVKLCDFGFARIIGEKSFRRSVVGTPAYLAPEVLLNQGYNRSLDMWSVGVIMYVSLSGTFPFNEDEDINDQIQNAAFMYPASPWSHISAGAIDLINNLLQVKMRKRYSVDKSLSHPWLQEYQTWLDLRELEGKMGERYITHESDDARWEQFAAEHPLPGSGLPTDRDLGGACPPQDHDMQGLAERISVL
The conditions noted are these: kinase PRKD2; for remaining activity at 1 µM: read-out: PRKD2 (% of control at 1 µM).

The target of assay [3] is T3, panel of 442 kinases (Homo sapiens, UniProt O14976).
T3 construct: purchased Ambit Biosciences (scanMAXX KINOMEscan)
T3 sequence (O14976 1-1311): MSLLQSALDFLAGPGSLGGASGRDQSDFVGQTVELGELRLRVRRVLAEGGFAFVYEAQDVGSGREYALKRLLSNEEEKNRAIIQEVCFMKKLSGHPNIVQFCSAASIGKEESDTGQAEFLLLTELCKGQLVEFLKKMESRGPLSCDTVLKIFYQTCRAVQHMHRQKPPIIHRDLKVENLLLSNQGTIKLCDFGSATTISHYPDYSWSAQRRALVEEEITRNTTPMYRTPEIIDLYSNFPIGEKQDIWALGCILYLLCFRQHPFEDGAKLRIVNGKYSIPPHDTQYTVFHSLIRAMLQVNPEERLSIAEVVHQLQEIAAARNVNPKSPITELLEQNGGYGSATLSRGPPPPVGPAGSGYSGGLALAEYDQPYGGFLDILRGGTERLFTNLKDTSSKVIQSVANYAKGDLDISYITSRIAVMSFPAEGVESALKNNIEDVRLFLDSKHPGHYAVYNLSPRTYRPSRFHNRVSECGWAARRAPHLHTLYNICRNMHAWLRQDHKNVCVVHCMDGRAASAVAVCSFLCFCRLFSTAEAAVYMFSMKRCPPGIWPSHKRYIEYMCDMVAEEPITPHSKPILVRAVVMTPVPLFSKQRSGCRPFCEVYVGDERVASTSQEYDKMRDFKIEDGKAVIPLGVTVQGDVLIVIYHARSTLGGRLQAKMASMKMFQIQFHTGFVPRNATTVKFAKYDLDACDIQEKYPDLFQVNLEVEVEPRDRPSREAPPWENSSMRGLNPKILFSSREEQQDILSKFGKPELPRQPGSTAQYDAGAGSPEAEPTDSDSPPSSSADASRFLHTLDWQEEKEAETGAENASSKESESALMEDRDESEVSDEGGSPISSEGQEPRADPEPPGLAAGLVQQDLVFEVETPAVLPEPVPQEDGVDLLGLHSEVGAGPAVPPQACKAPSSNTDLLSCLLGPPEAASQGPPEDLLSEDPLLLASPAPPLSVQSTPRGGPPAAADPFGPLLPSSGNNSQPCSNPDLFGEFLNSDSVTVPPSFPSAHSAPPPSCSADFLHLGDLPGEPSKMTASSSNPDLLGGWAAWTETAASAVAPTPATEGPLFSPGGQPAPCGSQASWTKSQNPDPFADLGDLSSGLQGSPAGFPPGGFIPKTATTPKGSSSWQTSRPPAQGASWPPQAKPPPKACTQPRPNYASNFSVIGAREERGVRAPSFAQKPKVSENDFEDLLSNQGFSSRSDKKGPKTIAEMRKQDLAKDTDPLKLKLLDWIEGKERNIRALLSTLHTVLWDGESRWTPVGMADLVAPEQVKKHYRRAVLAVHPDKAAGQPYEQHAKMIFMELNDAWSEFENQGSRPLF
The note with it: kinase GAK; for remaining activity at 1 µM: read-out: % of control at 1 µM.

For assay [4], the target named is T4, panel of 442 kinases (Homo sapiens, UniProt O75676).
T4 construct: purchased Ambit Biosciences (scanMAXX KINOMEscan)

Assay [5] concerns the target T5, panel of 442 kinases (Homo sapiens, UniProt P36897).
T5 construct: purchased Ambit Biosciences (scanMAXX KINOMEscan)
T5 sequence (P36897 34-503): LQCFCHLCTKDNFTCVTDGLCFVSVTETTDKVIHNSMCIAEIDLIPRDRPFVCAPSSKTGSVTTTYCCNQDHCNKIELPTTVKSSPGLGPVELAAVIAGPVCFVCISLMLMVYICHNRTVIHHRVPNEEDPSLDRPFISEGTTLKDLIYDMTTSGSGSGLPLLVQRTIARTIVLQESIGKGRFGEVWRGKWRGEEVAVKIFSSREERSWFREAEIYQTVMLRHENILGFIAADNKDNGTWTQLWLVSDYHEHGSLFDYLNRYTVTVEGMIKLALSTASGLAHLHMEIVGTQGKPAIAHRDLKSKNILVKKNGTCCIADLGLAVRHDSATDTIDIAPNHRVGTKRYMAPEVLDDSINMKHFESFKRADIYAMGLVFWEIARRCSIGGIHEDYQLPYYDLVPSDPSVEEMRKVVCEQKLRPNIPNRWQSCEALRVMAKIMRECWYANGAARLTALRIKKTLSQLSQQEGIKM
The note with it: kinase TGFBR1; for remaining activity at 1 µM: read-out: TGFBR1 (% of control at 1 µM).

Setting [6] is: 10 µM, read-out: % of control at 10 µM.
Setting [7] is: kinase RPS6KA4(Kin.Dom.1-N-terminal), read-out: RPS6KA4(Kin.Dom.1-N-terminal) (% of control at 1 µM).
Where [8] appears, read: kinase RPS6KA4(Kin.Dom.2-C-terminal), read-out: RPS6KA4(Kin.Dom.2-C-terminal) (% of control at 1 µM).

T1 sequence (Q00537 whole entry): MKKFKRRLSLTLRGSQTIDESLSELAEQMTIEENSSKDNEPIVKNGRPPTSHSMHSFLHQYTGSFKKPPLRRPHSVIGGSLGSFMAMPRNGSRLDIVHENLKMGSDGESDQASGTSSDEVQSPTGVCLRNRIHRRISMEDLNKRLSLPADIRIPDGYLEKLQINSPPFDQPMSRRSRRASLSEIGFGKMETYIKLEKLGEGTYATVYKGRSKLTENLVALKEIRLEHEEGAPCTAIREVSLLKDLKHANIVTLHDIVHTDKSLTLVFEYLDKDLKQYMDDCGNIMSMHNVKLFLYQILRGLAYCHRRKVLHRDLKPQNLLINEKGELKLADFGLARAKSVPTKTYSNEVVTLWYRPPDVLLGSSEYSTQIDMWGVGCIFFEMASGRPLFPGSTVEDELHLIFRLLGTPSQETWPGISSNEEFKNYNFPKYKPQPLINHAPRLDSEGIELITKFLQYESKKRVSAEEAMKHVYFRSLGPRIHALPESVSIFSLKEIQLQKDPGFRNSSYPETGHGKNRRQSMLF
T4 sequence (O75676 whole entry): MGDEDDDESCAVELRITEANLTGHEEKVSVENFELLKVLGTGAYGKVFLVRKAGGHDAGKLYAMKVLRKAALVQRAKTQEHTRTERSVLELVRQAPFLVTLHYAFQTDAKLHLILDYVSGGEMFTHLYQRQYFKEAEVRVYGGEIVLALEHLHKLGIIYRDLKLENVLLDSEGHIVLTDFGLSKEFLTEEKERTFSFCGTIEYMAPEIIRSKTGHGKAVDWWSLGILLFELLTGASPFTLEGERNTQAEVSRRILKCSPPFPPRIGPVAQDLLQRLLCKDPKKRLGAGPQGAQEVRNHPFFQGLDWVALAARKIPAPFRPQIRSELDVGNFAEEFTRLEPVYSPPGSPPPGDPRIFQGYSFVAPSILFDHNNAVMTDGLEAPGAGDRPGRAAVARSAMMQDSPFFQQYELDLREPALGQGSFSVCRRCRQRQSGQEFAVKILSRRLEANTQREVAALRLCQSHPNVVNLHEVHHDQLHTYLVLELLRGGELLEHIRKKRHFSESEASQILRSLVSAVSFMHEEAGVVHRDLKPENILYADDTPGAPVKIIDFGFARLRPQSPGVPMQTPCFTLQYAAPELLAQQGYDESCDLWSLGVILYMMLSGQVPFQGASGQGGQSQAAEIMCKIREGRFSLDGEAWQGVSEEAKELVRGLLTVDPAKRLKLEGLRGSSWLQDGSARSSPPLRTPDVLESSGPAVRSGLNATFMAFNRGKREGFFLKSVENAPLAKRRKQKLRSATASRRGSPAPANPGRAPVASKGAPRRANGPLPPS

For `Nc1cc(C(F)(F)F)c(-c2cc(N3CCOCC3)nc(N3CCOCC3)n2)cn1` [Buparlisib], the remaining activity at 1 µM at panel of 442 kinases [1] stood at 87%; at panel of 442 kinases [2], 100%; on panel of 442 kinases [3], 100%; at panel of 442 kinases [4] (setting [7]), 83%; on panel of 442 kinases [4] (setting [8]) it was 94%; on panel of 442 kinases [5], 100%. The remaining activity at 10 µM on panel of 442 kinases [1] (setting [6]) was determined as 69%; on panel of 442 kinases [2] (10 µM, read-out: PRKD2 (% of control at 10 µM)) it was 100%; on panel of 442 kinases [3] (setting [6]), 100%; at panel of 442 kinases [4] (kinase RPS6KA4(Kin.Dom.1-N-terminal), read-out: RPS6KA4(Kin.Dom.1-N-terminal) (% of control at 10 µM)), 100%; at panel of 442 kinases [4] (kinase RPS6KA4(Kin.Dom.2-C-terminal), read-out: RPS6KA4(Kin.Dom.2-C-terminal) (% of control at 10 µM)) it was 100%; at panel of 442 kinases [5] (10 µM, read-out: TGFBR1 (% of control at 10 µM)), 100%.
Turning to `Cn1c(=O)n(-c2ccc(C(C)(C)C#N)cc2)c2c3cc(-c4cnc5ccccc5c4)ccc3ncc21` [Dactolisib, 2-methyl-2-[4-(3-methyl-2-oxo-8-quinolin-3-yl-2,3-dihydroimidazo[4,5-c]quinolin-1-yl)-phenyl] propionitrile], the remaining activity at 1 µM on panel of 442 kinases [1] worked out at 100%; at panel of 442 kinases [2] it was 93%; at panel of 442 kinases [3] it was 60%; at panel of 442 kinases [4] (setting [7]), 100%; on panel of 442 kinases [4] (setting [8]), 100%; at panel of 442 kinases [5], 89%.
With `COc1ncc(-c2ccc3nccc(-c4ccnnc4)c3c2)cc1NS(=O)(=O)c1ccc(F)cc1F` [Omipalisib], the remaining activity at 1 µM on panel of 442 kinases [1] was 100%; on panel of 442 kinases [2], 100%; on panel of 442 kinases [3], 61%; on panel of 442 kinases [4] (setting [7]) it was 100%; on panel of 442 kinases [4] (setting [8]) it was 97%; at panel of 442 kinases [5], 100%.
Consider `FC(F)c1nc2ccccc2n1-c1nc(N2CCOCC2)nc(N2CCOCC2)n1` [ZSTK474, 2-(difluoromethyl)-1-[4,6-di(4-morpholinyl)-1,3,5-triazin-2-yl]-1H-benzimidazole], for which the remaining activity at 1 µM at panel of 442 kinases [1] was determined as 100%; at panel of 442 kinases [2], 93%; on panel of 442 kinases [3], 78%; on panel of 442 kinases [4] (setting [7]), 100%; on panel of 442 kinases [4] (setting [8]) it was 100%; on panel of 442 kinases [5], 79%.
